Assay results from patent US20160264593A1 (priority 2013, published 2016).
Values joined by “and” are separate entries in the source; they are usually repeats but may differ in a detail not shown here. Equal values may be shown once. Read-outs that look alike come from different tables or passages of the source. Values belong to the molecule of their own block, whether it stands above or below them.

What was measured:
[1] = system: breast cancer (2LMP) cells; experiment: WST cell viability assay, 2LMP
Excerpt: (§3) IC50 values were obtained for cytotoxicity against breast cancer (2LMP), glioblastoma (U-87) and lung cancer (A549) cells (See Table 5 and FIGS. 3-5).

[2] = system: glioblastoma (U-87) cells; experiment: WST cell viability assay, U-87 MG; type: cell-based; settings: for IC50: read-out: IC50 U-87 MG; for cytotoxicity against glioblastoma cells (statement): WST, U-87
lung cancer (A549) cells = experiment: WST cell viability assay, A549; type: cell-based; settings: for IC50: WST-20131028, read-out: IC50 A549; for cytotoxicity against lung cancer cells (statement): WST
[3] = system: breast cancer (2LMP) cells
Excerpt: as §3

[4] = Pharmacokinetic study of 153 (and metabolite endothal) in SD rats, iv and po; plasma, liver, brain; type: in vivo
Experimental: The blood, liver and brain tissue samples were collected at predetermined times from rats. […] Compound were diluted shortly before use in 4% sodium bicarbonate for sterile injection (this is the standard pediatric solution of NaHCO3 with a pH of about 8.5).
Compound 153 was freshly prepared by diluting the drugs shortly before use in 4% sodium bicarbonate for sterile injection (this is the standard pediatric solution of NaHCO3 with a pH of about 8.5). The final concentrations of 153 solutions were 0.25 mg/mL. The 153 solutions were administered via iv or po route at dose volume of 5 ml/kg according to the latest body weight. Compound 157 was freshly prepared by diluting the drugs shortly before use in 4% sodium bicarbonate for sterile injection (this is the standard pediatric solution of NaHCO3 with a pH of about 8.5). The final concentrations of […] solutions were 0.3 mg/mL. The 157 solutions were administered via iv or po route at dose volume of 5 ml/kg according to the latest body weight.
Twelve (12) female SD rats per group were dosed by iv with 153 or 157. The rats were fasted overnight prior to dosing, with free access to water. Foods were withheld for 2 hours post-dose. Blood, liver and brain tissue samples in two animals each group were collected at each time point, within 10% of the scheduled time for each time point. Two extra animals were used for analytic method development.
Blood (>0.3 mL) were collected via aorta abdominalis in anaesthetic animals into tubes containing heparin at 15 min, 1, 2, 6, 10 and 24 hours after iv administration. Liver and brain tissues were collected immediately after animal death. The liver and brain tissues were excised and rinsed with cold saline to avoid blood residual. Upon collection, each sample was placed on ice and the blood samples were subsequently centrifuged (4° C., 11000 rpm, 5 min) to separate plasma. The obtained plasma, liver and brain tissue samples were stored at −70° C. until LC-MS/MS analysis.
Two (2) female SD rats per group were dosed by po with 153 or 157. The rats were fasted overnight prior to dosing, with free access to water. Foods were withheld for 2 hours post-dose. Blood samples (>0.3 mL) were collected via aorta abdominalis in anaesthetic animals into tubes containing heparin at 30 min, 1, 2, 6, 10 and 24 hours after po administration.
To each sample, 20 μL IS-D (for blank samples, 20 μL acetonitrile:water (1:1) was added) and 300 μl acetonitrile was added. The sample mixture was vortexed for approximately 3 min. After centrifugation at 10000 rpm for 5 min at 4° C., 100 μL of the upper layer was transferred to a new tube and added 200 μL 0.4% formic acid in water (pH 6.0). The mixture was vortexed for approximately 3 min before injected onto the LC/MS/MS system for analysis.
On the day of the assay, the frozen liver and brain samples were thawed unassisted at room temperature. An about 200 mg weighed sample of each thawed tissue was placed into a plastic tube with water (0.6 mL) to facilitate homogenization. Tissue processing was conducted using a homogenizer for approximately 1 min, 200 μl homogenate was transferred into a fresh Eppendorf tube. To each tube, 50 μL IS-D was added and mixed. Then 600 μl acetonitrile was added and the sample mixture was vortexed for approximately 3 min. After centrifugation at 10000 rpm for 5 min at 4° C., 400 μL of the upper layer was transferred to a new tube and evaporate the supernatant to dryness at 35° C. Reconstitute the residue with 200 μL of 0.4% formic acid in water (pH6.0), and vortex for 3 min, submit for LC-MS/MS analysis.
Frozen unknown plasma samples were completely thawed at room temperature and vortexed thoroughly. With a pipette, 50 μL of plasma was transferred into a 2.0 mL Eppendorf tube. 50 μL of 0.1N HCl and 800 μL ethyl acetate were added into each sample. The sample mixture was vortexed for approximately 3 min.

PP2A [5] = experiment: PP2A immunoprecipitation phosphatase assay on mouse brain lysate, OA added to the reaction (positive control); type: biochemical, Balb/c mice
Experimental: (§1) Coomassie (Bradford) Protein Assay Kit (Pierce); PP2A Immunoprecipitation Phosphatase Assay Kit (Millipore); Lysate preparation for low endogenous phosphate: 20 mM imidazole-HCl, 2 mM EDTA, 2 mM EGTA, 1 mM PMSF, 1 mM benzamidine, 10 ug/ml each of aprotinin, leupeptin, antipain, soybean trypsin inhibitor; Normal Mouse IgG (Millipore); Okadaic acid (OA) (Tocris); DMSO (Sigma).
(§2) 1. Mouse brain or liver was homogenized using lysis buffer (25 g/L), centrifuged at 12000 g for 10 minutes at […], and the supernatants were collected. 2. The protein was quantitated, and 240 μg of mouse brain or liver lysate was taken to assay phosphatase activity. 3. Added 4 μg of Anti-PP2A or 4 μg Normal mouse IgG as an IP control. 4. Added 30 μl Protein A agarose slurry. 5. Brought volume to 500 μl with pNPP Ser/Thr Assay Buffer. 6. Incubated for 2 h at 4° C. with constant rocking. 7. Washed beads 3 times with 700 μl TBS, followed by one wash with 500 μl Ser/Thr Assay Buffer. 8. Added 20 μl of Ser/Thr Assay Buffer. (In order to determine the linear range of PP2A amount for enzymatic reaction, different amounts of precipitated PP2A were used for subsequent phosphatase assay.) 9. Added 60 μl of diluted phosphopeptide (final concentration would be 750 μM) 10. Added OA (5 μM & 5 nM) or DMSO to the reaction system. 11. Incubated for 10 minutes at 30° C. in a shaking incubator. 12. Centrifuged briefly and transferred 25 μl into each well of the microliter plate to be used.
13. Added 100 μl of Malachite Green Phosphate Detection Solution AB.
14. Let color develop for 10-15 minutes at RT. 15. Measured absorbance at a wavelength between […] in a microliter plate reader.

PP2A [6] = experiment: PP2A immunoprecipitation phosphatase assay on mouse liver lysate, OA added to the reaction (positive control); type: biochemical, Balb/c mice
Experimental: as §1
as §2, with “Incubated for 10 minutes at 30° C. in a shaking incubator. 12. Centrifuged briefly and transferred 25 μl into each well of the microliter plate to be used.” left out
14. […] Measured absorbance at a wavelength between […] in a microliter plate reader.

[7] = iv daily for 5 days, phase I; cited from earlier work
[8] = read-out: IC50 2LMP, WST-20131015 (first value of the cell)
[9] = read-out: IC50 2LMP, WST-20131025 (second value of the cell)
[10] = End. in plasma after 153 1.25 mg/kg IV, Mean
[11] = End. in plasma after 153 1.25 mg/kg IV, rat 1
[12] = End. in plasma after 153 1.25 mg/kg IV, rat 2
[13] = End. in plasma after 153 1.25 mg/kg PO, Mean
[14] = End. in plasma after 153 1.25 mg/kg PO, rat 1
[15] = End. in plasma after 153 1.25 mg/kg PO, rat 2
[16] = Endothal in liver after single iv 153 1.25 mg/kg, Mean
[17] = Endothal in liver after single iv 153 1.25 mg/kg, rat 1
[18] = Endothal in liver after single iv 153 1.25 mg/kg, rat 2
[19] = 5 nM OA in the reaction, brain sample M1-1
[20] = 5 μM OA in the reaction, brain sample M1-1

IC50 [1, 8]: 9.19 µM | IC50 [1, 9]: 12.8 µM | IC50 ([2]; Homo sapiens, U-87 MG, WST-20131017 (first value of the cell)): 15.2 µM | IC50 ([2]; Homo sapiens, U-87 MG, WST-20131024 (second value of the cell)): 8.28 µM | IC50 (lung cancer (A549) cells; Homo sapiens, A549): 8.74 µM
SMILES: CCCCC/C=C/C/C=C/CCCCCCCCOC(=O)C1C2CCC(O2)C1C(=O)N1CCN(C)CC1 (stereo not shown) [Compound 158, 3-(4-Methylpiperazine-1-carbonyl)-7-oxa-bicyclo [2,2,1] heptane-2-carboxylic acid linoleyl ester]
cytotoxicity against glioblastoma cells (statement) [2]: cytotoxic | cytotoxicity against lung cancer cells (statement) (lung cancer (A549) cells; A549): cytotoxic | cytotoxicity against breast cancer cells (statement) [3]: cytotoxic | cytotoxicity relative to 100 (statement) [3]: increased cytotoxicity relative to 100

SMILES: CCCCCCCCCCCCCCCCCOC(=O)C1C2CCC(O2)C1C(=O)N1CCN(C)CC1 (stereo not shown) [Compound 159]
cytotoxicity against breast cancer cells (statement) ([1]; WST, 2LMP): cytotoxic | cytotoxicity relative to 100 (statement) ([1]; cell line not specified (2LMP, U-87, A549 tested)): increased cytotoxicity relative to 100 | IC50 [1, 8]: 4.66 µM | IC50 [1, 9]: 4.62 µM | cytotoxicity against glioblastoma cells (statement) [2]: cytotoxic | IC50 ([2]; WST-20131017 (first value of the cell)): 5.41 µM | IC50 ([2]; WST-20131024 (second value of the cell)): 5.07 µM | cytotoxicity against lung cancer cells (statement) (lung cancer (A549) cells; A549): cytotoxic | IC50 (lung cancer (A549) cells): 4.71 µM

SMILES: O=C(O)C1C2CCC(O2)C1C(=O)O (stereo not shown) [End.]
AUC [4, 10]: 378 ng·h/mL | AUC0-∞ [4, 10]: 600 ng·h/mL | Cmax [4, 10]: 70.5 ng/mL | MRT (0-t) [4, 10]: 3.34 h | T1/2 [4, 10]: 5.2 h | Tmax [4, 10]: 1.13 h | AUC [4, 11]: 482 ng·h/mL | AUC0-∞ [4, 11]: 618 ng·h/mL | Cmax [4, 11]: 77.1 ng/mL | MRT (0-t) [4, 11]: 3.93 h | T1/2 [4, 11]: 4.37 h | Tmax [4, 11]: 2 h | AUC [4, 12]: 274 ng·h/mL | AUC0-∞ [4, 12]: 581 ng·h/mL | Cmax [4, 12]: 63.8 ng/mL | MRT (0-t) [4, 12]: 2.74 h | T1/2 [4, 12]: 6.02 h | Tmax [4, 12]: 0.25 h | AUC [4, 13]: 179 ng·h/mL | AUC0-∞ [4, 13]: 364 ng·h/mL | Cmax [4, 13]: 46.9 ng/mL | MRT (0-t) [4, 13]: 2.76 h | T1/2 [4, 13]: 5.49 h | Tmax [4, 13]: 0.75 h | AUC [4, 14]: 189 ng·h/mL | AUC0-∞ [4, 14]: 395 ng·h/mL | Cmax [4, 14]: 53.6 ng/mL | MRT (0-t) [4, 14]: 2.8 h | T1/2 [4, 14]: 5.53 h | Tmax [4, 14]: 1 h | AUC [4, 15]: 169 ng·h/mL | AUC0-∞ [4, 15]: 333 ng·h/mL | Cmax [4, 15]: 40.2 ng/mL | MRT (0-t) [4, 15]: 2.72 h | T1/2 [4, 15]: 5.45 h | Tmax [4, 15]: 0.5 h | MRT (0-t) [4, 16]: 3.24 h | T1/2 [4, 16]: 2.79 h | Tmax [4, 16]: 2 h | T1/2 [4, 17]: 3 h | Tmax [4, 17]: 2 h | MRT (0-t) [4, 18]: 3.43 h | T1/2 [4, 18]: 2.57 h | Tmax [4, 18]: 2 h

SMILES: C=C1[C@@H](O)[C@@H]2O[C@]3(CC[C@H](/C=C/[C@@H](C)[C@@H]4CC(C)=C[C@@]5(O[C@H](C[C@@](C)(O)C(=O)O)CC[C@H]5O)O4)O3)CC[C@H]2O[C@@H]1[C@@H](O)C[C@H](C)[C@H]1O[C@@]2(CCCCO2)CC[C@H]1C [OA, Okadaic acid]
Average Conc. (PP2A [5]; [19]): 270.60 | Average Relative Activity (vehicle = 100) (PP2A [5]; [19]): 12.46 | Conc. (phosphate, single reading) (PP2A [5]; [19]): 282.72 and 271.21 | Mean Conc. (PP2A [5]; [19]): 276.96 | Mean Conc. less IgG blank (PP2A [5]; [19]): 270.60 | Relative Conc. (PP2A [5]; [19]): 0.12 | Relative PP2A Activity (vehicle = 100) (PP2A [5]; [19]): 12.46 | Average Conc. (PP2A [5]; [20]): −5.54 | Average Relative Activity (vehicle = 100) (PP2A [5]; [20]): −0.38 | Mean Conc. (PP2A [5]; [20]): 0.82 | Mean Conc. less IgG blank (PP2A [5]; [20]): −5.54 | Relative Conc. (PP2A [5]; [20]): 0.00 | Relative PP2A Activity (vehicle = 100) (PP2A [5]; [20]): −0.38 | activity of PP2A in brains, positive control (statement) (PP2A [5]; OA added to the reaction): significantly inhibited | activity of PP2A in livers, positive control (statement) (PP2A [6]): significantly inhibited

SMILES: C[C@@](O)(/C=C/[C@H]1CC=CC(=O)O1)[C@@H](C[C@@H](O)\C=C/C=C\C=C\CO)OP(=O)(O)O [fostriecin]
dose limiting toxicity [7]: not achieved | major toxicities [7]: reversible non-cumulative increases in serum creatinine and hepatic enzymes
